Assay results published in US20060264419A1 (priority 2003, published 2006).
pIC50: −log10 of the molar value.

Target: 5-HT2A receptors (Rattus norvegicus, UniProt P14842)
Assay: in-vitro affinity to 5-HT2A receptors, displacement of [3H]ketanserine (Example A1)
Format: binding
Conditions: target not given; description names affinity to 5-HT2A receptors; read-out: IC50
From the text: The 5-HT2A receptors are exposed both to [^3H]ketanserine (a substance which is known for its affinity to the receptor) and also to the test compound. The decrease in the affinity of [^3H]ketanserine to the receptor is an indication of the affinity of the test substance to the 5-HT2A receptor.

5-HT2A receptors, sequence (P14842 whole entry): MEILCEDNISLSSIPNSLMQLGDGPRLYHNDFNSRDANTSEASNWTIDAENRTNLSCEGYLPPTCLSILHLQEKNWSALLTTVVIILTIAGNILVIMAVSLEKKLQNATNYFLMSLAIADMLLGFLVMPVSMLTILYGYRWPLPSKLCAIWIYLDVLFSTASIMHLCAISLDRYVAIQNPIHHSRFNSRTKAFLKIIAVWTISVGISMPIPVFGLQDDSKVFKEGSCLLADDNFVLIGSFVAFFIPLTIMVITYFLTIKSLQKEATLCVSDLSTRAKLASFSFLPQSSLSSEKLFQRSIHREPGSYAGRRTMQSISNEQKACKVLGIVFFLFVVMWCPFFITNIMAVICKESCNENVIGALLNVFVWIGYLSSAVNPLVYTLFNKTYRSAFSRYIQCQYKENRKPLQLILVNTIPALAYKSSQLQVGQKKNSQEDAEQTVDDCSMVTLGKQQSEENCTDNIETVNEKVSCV

Compound: CN1CCN(Cc2cnn(-c3ccc(-c4ccccc4F)cc3)c2-c2ccccc2F)CC1 [(63), 1-[1-(2′-Fluorobiphenyl-4-yl)-5-(2-fluorophenyl)-1H-pyrazol-4-ylmethyl]-4-methylpiperazine]
- pIC50: 7.03

Compound: CN1CCN(Cc2cnn(-c3ccc(-c4ccc(F)cc4)cc3)c2-c2ccccc2F)CC1 [(64), 1-[1-(4′-Fluorobiphenyl-4-yl)-5-(2-fluorophenyl)-1H-pyrazol-4-ylmethyl]-4-methylpiperazine]
- pIC50: 8.11

Compound: CN1CCN(Cc2cnn(-c3ccc(-c4cc(F)ccc4F)cc3)c2-c2ccccc2F)CC1 [(65), 1-[1-(2′,5′-Difluorobiphenyl-4-yl)-5-(2-fluorophenyl)-1H-pyrazol-4-ylmethyl]-4-methylpiperazine]
- pIC50: 7.26

Compound: CN1CCN(Cc2cnn(-c3ccc(-c4ccsc4)cc3)c2-c2ccccc2F)CC1 [(66), 1-[5-(2-Fluorophenyl)-1-(4-thiophen-3-ylphenyl)-1H-pyrazol-4-ylmethyl]-4-methylpiperazine]
- pIC50: 7.85

Compound: CN1CCN(Cc2cnn(-c3ccc(-c4ccccc4)cc3)c2C(F)(F)F)CC1 [(67)]
- pIC50: 6.59

Compound: CN1CCN(Cc2cnn(-c3ccc(-c4cc(F)ccc4F)cc3)c2-c2ccccc2)CC1 [(68), 1-[1-(2′,5′-Difluorobiphenyl-4-yl)-5-phenyl-1H-pyrazol-4-ylmethyl]-4-methylpiperazine]
- pIC50: 6.96

Compound: CN1CCN(Cc2cnn(-c3ccc(-c4cc(F)ccc4F)cc3)c2-c2ccco2)CC1 [(69), 1-[1-(2′,5′-Difluorobiphenyl-4-yl)-5-furan-2-yl-1H-pyrazol-4-ylmethyl]-4-methylpiperazine]
- pIC50: 7.44

Compound: CN1CCN(Cc2cnn(-c3ccc(-c4ccsc4)cc3)c2-c2ccco2)CC1 [(70), 1-[5-Furan-2-yl-1-(4-thiophen-3-ylphenyl)-1H-pyrazol-4-ylmethyl]-4-methylpiperazine]
- pIC50: 8.35

Compound: COc1ccccc1-c1c(CN2CCN(C)CC2)cnn1-c1ccc(-c2cc(F)ccc2F)cc1 [(71), 1-[1-(2′,5′-Difluorobiphenyl-4-yl)-5-(2-methoxyphenyl)-1H-pyrazol-4-ylmethyl]-4-methylpiperazine]
- pIC50: 7.11

Compound: CCOC(=O)N1CCC(NCc2cnn(-c3ccc(-c4ccccc4)cc3)c2-c2ccccc2F)CC1 [(72), Ethyl 4-{[1-biphenyl-4-yl-5-(2-fluorophenyl)-1H-pyrazol-4-ylmethyl]amino}piperidine-1-carboxylate]
- pIC50: 6.24

Compound: CCOC(=O)CN1CCN(Cc2cnn(-c3ccc(-c4ccccc4)cc3)c2-c2ccccc2F)CC1 [(73), Ethyl {4-[1-biphenyl-4-yl-5-(2-fluorophenyl)-1H-pyrazol-4-ylmethyl]piperazin-1-yl}acetate]
- pIC50: 6.16

Compound: Fc1ccccc1-c1c(CNC2CCNCC2)cnn1-c1ccc(-c2ccccc2)cc1 [(74), [1-Biphenyl-4-yl-5-(2-fluorophenyl)-1H-pyrazol-4-ylmethyl]-piperidin-4-ylamine]
- pIC50: 6.33

Compound: NCCNCc1cnn(-c2ccc(-c3ccccc3)cc2)c1-c1ccccc1F [(76), N^1-[1-Biphenyl-4-yl-5-(2-fluorophenyl)-1H-pyrazol-4-ylmethyl]-ethane-1,2-diamine]
- pIC50: 8.19

Compound: OCCNCc1cnn(-c2ccc(-c3ccccc3)cc2)c1-c1ccccc1F [(77), 2-{[1-Biphenyl-4-yl-5-(2-fluorophenyl)-1H-pyrazol-4-ylmethyl]-amino}ethanol]
- pIC50: 8.28

Compound: COCCNCc1cnn(-c2ccc(-c3ccccc3)cc2)c1-c1ccccc1F [(78), [1-Biphenyl-4-yl-5-(2-fluorophenyl)-1H-pyrazol-4-ylmethyl]-(2-methoxyethyl)amine]
- pIC50: 7.80

Compound: OCCN1CCN(Cc2cnn(-c3ccc(-c4ccccc4)cc3)c2-c2ccccc2F)CC1 [(79), 2-{4-[1-Biphenyl-4-yl-5-(2-fluorophenyl)-1H-pyrazol-4-ylmethyl]piperazin-1-yl}ethanol]
- pIC50: 6.55

Compound: CCC1(O)CCN(Cc2cnn(-c3ccc(-c4ccccc4)cc3)c2-c2ccccc2F)CC1 [(80), 1-[1-Biphenyl-4-yl-5-(2-fluorophenyl)-1H-pyrazol-4-ylmethyl]-4-ethylpiperidin-4-ol]
- pIC50: 6.55

Compound: OC1CCN(Cc2cnn(-c3ccc(-c4ccccc4)cc3)c2-c2ccccc2F)CC1 [(81), 1-[1-Biphenyl-4-yl-5-(2-fluorophenyl)-1H-pyrazol-4-ylmethyl]-piperidin-4-ol]
- pIC50: 6.37

Compound: Fc1ccccc1-c1c(CN2CC3CC2CO3)cnn1-c1ccc(-c2ccccc2)cc1 (centres unmarked) [(82), 5-[1-Biphenyl-4-yl-5-(2-fluorophenyl)-1H-pyrazol-4-ylmethyl]-2-oxa-5-azabicyclo[2.2.1]heptane]
- pIC50: 6.80

Compound: OC1CC2CCC(C1)N2Cc1cnn(-c2ccc(-c3ccccc3)cc2)c1-c1ccccc1F (centres unmarked) [(83), 8-[1-Biphenyl-4-yl-5-(2-fluorophenyl)-1H-pyrazol-4-ylmethyl]-8-azabicyclo[3.2.1]octan-3-ol]
- pIC50: 5.96

Compound: CC(C)(C)OC(=O)N1CCN(Cc2cnn(-c3ccc(C(F)(F)F)cc3)c2-c2ccccc2F)CC1 [(84), tert-Butyl 4-[5-(2-fluorophenyl)-1-(4-trifluoromethyl-phenyl)-1H-pyrazol-4-ylmethyl]piperazine-1-carboxylate]
- pIC50: 8.10

Compound: NC(=O)C1CCN(Cc2cnn(-c3ccc(-c4ccccc4)cc3)c2-c2ccccc2F)CC1 [(85), 1-[1-Biphenyl-4-yl-5-(2-fluorophenyl)-1H-pyrazol-4-ylmethyl]-piperidine-4-carboxamide]
- pIC50: 6.06

Compound: Fc1ccccc1-c1c(CN2CCNCC2)cnn1-c1ccc(C(F)(F)F)cc1 [(86), 1-[5-(2-Fluorophenyl)-1-(4-trifluoromethylphenyl)-1H-pyrazol-4-ylmethyl]piperazine]
- pIC50: 7.37

Compound: CN1CCN(Cc2cnn(-c3ccc(C(F)(F)F)cc3)c2-c2ccccc2F)CC1 [(87), 1-[5-(2-Fluorophenyl)-1-(4-trifluoromethylphenyl)-1H-pyrazol-4-ylmethyl]-4-methylpiperazine]
- pIC50: 6.80

Compound: CCN1CCCC1CNCc1cnn(-c2ccc(-c3ccccc3)cc2)c1-c1ccccc1F (centres unmarked) [(88), [1-Biphenyl-4-yl-5-(2-fluorophenyl)-1H-pyrazol-4-ylmethyl]-(1-ethylpyrrolidin-2-ylmethyl)amine]
- pIC50: 7.70

Compound: Fc1ccccc1-c1c(CNCc2cccnc2)cnn1-c1ccc(-c2ccccc2)cc1 [(89), [1-Biphenyl-4-yl-5-(2-fluorophenyl)-1H-pyrazol-4-ylmethyl]-pyridin-3-ylmethylamine]
- pIC50: 6.74

Compound: CCN1CCN(Cc2cnn(-c3ccc(-c4ccccc4)cc3)c2-c2ccccc2F)CC1 [(90), 1-[1-Biphenyl-4-yl-5-(2-fluorophenyl)-1H-pyrazol-4-ylmethyl]-4-ethylpiperazine]
- pIC50: 7.55

Compound: CN(CCO)Cc1cnn(-c2ccc(-c3ccccc3)cc2)c1-c1ccccc1F [(92), 2-{[1-Biphenyl-4-yl-5-(2-fluorophenyl)-1H-pyrazol-4-ylmethyl]-methylamino}ethanol]
- pIC50: 7.80

Compound: CN1CCCN(Cc2cnn(-c3ccc(-c4ccccc4)cc3)c2-c2ccccc2F)CC1 [(93), 1-[1-Biphenyl-4-yl-5-(2-fluorophenyl)-1H-pyrazol-4-ylmethyl]-4-methyl-[1,4]diazepam]
- pIC50: 8.19

Compound: O=C1NCN(c2ccccc2)C12CCN(Cc1cnn(-c3ccc(-c4ccccc4)cc3)c1-c1ccccc1F)CC2 [(94), 8-[1-Biphenyl-4-yl-5-(2-fluorophenyl)-1H-pyrazol-4-ylmethyl]-1-phenyl-1,3,8-triazaspiro[4.5]decan-4-one]
- pIC50: 6.40

Compound: CC1CN(Cc2cnn(-c3ccc(-c4ccccc4)cc3)c2-c2ccccc2F)CC(C)N1 (centres unmarked) [(95), 1-[1-Biphenyl-4-yl-5-(2-fluorophenyl)-1H-pyrazol-4-ylmethyl]-3,5-dimethylpiperazine]
- pIC50: 7.00

Compound: CN1CCN(Cc2cnn(-c3ccc(-c4ccccc4F)cc3)c2-c2ccccc2)CC1 [(96), 1-[1-(2′-Fluorobiphenyl-4-yl)-5-phenyl-1H-pyrazol-4-ylmethyl]-4-methylpiperazine]
- pIC50: 6.09

Compound: CN1CCN(Cc2cnn(-c3ccc(-c4ccc(F)cc4)cc3)c2-c2ccccc2)CC1 [(97), 1-[1-(4′-Fluorobiphenyl-4-yl)-5-phenyl-1H-pyrazol-4-ylmethyl]-4-methylpiperazine]
- pIC50: 7.89

Compound: CN1CCN(Cc2cnn(-c3ccc(-c4ccsc4)cc3)c2-c2ccccc2)CC1 [(98), 1-Methyl-4-[5-phenyl-1-(4-thiophen-3-ylphenyl)-1H-pyrazol-4-ylmethyl]piperazine]
- pIC50: 7.51

Compound: CN1CCN(Cc2cnn(-c3ccc(-c4ccccc4F)cc3)c2-c2ccc(F)cc2)CC1 [(99), 1-[1-(2′-Fluorobiphenyl-4-yl)-5-(4-fluorophenyl)-1H-pyrazol-4-ylmethyl]-4-methylpiperazine]
- pIC50: 6.68

Compound: CN1CCN(Cc2cnn(-c3ccc(-c4ccc(F)cc4)cc3)c2-c2ccc(F)cc2)CC1 [(100), 1-[1-(4′-Fluorobiphenyl-4-yl)-5-(4-fluorophenyl)-1H-pyrazol-4-ylmethyl]-4-methylpiperazine]
- pIC50: 7.60

Compound: CN1CCN(Cc2cnn(-c3ccc(-c4cc(F)ccc4F)cc3)c2-c2ccc(F)cc2)CC1 [(101), 1-[1-(2′,5′-Difluorobiphenyl-4-yl)-5-(4-fluorophenyl)-1H-pyrazol-4-ylmethyl]-4-methylpiperazine]
- pIC50: 6.62

Compound: CN1CCN(Cc2cnn(-c3ccc(-c4ccsc4)cc3)c2-c2ccc(F)cc2)CC1 [(102), 1-[5-(4-Fluorophenyl)-1-(4-thiophen-3-ylphenyl)-1H-pyrazol-4-ylmethyl]-4-methylpiperazine]
- pIC50: 5.96

Compound: CN1CCN(Cc2cnn(-c3ccc(-c4ccccc4F)cc3)c2-c2ccco2)CC1 [(103), 1-[1-(2′-Fluorobiphenyl-4-yl)-5-furan-2-yl-1H-pyrazol-4-ylmethyl]-4-methylpiperazine]
- pIC50: 7.60

Compound: COc1ccccc1-c1c(CN2CCN(C)CC2)cnn1-c1ccc(-c2ccccc2F)cc1 [(104), 1-[1-(2′-Fluorobiphenyl-4-yl)-5-(2-methoxyphenyl)-1H-pyrazol-4-ylmethyl]-4-methylpiperazine]
- pIC50: 7.28

Compound: COc1ccccc1-c1c(CN2CCN(C)CC2)cnn1-c1ccc(-c2ccsc2)cc1 [(105), 1-[5-(2-Methoxyphenyl)-1-(4-thiophen-3-ylphenyl)-1H-pyrazol-4-ylmethyl]-4-methylpiperazine]
- pIC50: 6.34
